According to patent US7064114B2, “Gel-microemulsion formulations” (priority 1999, dated 2006):
Values joined by “and” are separate entries in the source; they are usually repeats but may differ in a detail not shown here. Identical values can stand only once.

How the values were obtained:
Solubility of WHI-07 = format: physicochemical; details: for solubility at 2 h: thermodynamic from solid, n = 3
Protocol: (§1) After the drug was completely dissolved in octanol, 5 ml of water was added to each octanol solution. The mixtures were handshaken vigorously for 10 min, and afterward let to stand overnight until a complete phase separation occurred.
The solubility of WHI-07 in Captex® 300 and polyethylene glycol 300 was carried out using UV-Vis spectrophotometer at 272 nm.
Calibration curve: Two stock solutions of WHI-07 were prepared in ethanol at concentrations of 4.2 mg/ml and 3.85 mg/ml respectively. The plot of the calibration curve is shown in Curve 1.
Appropriate amounts of WHI-07 and Captex® 300 or PEG300 were weighed and placed in glass containers. Each sample was stirred with a stir bar at ambient temperature for 2 hours. Each sample was then filtered through 0.45 μm filter, and diluted with ethanol for UV-Vis measurement.

[1] = Octanol/water partition coefficient of WHI-07; format: physicochemical
Protocol: as §1
Samples of water and octanol were taken from each mixture, and directly injected into the HPLC for analysis. The peak area ratios represent the partition coefficient.

human sperm = test: Computer-assisted spermicidal assay (CASA) on washed highly motile fraction of sperm; format: cell-based; details: 3 h at 37° C.; for effect on human sperm motility: concentrations up to those used for GM-4, CASA
Protocol: All donor specimens were obtained after informed consent and in compliance with the guidelines of the Parker Hughes Institute Institutional Review Board. […] Sigma Chemical Co., St. Louis, Mo.) in the presence and absence of serial 2-fold dilutions of test substance. […] After 3 h incubation at 37° C., the sperm head centroid-derived sperm motility parameters were determined using a Hamilton Thorne Research (Danvers, Mass.) Integrated Visual Optical System (IVOS), version 10 instrument, as previously described (D'Cruz O J, et al., Biol Reprod, 1998;58:1515-26.; D'Cruz O J, et al., Mol Hum Reprod, 1998;4:683-93.; D'Cruz O J, et al., Biol Reprod, 1999;60:435-44.; D'Cruz O J, et al. Biol Reprod, 1999;60:1419-28.). The attributes of sperm kinematic parameters evaluated included numbers of motile (MOT) and progressively (PRG) motile sperm; curvilinear velocity (VCL); average path velocity (VAP); straight-line velocity (VSL); beat-cross frequency (BCF); and the amplitude of lateral head displacement (ALH) and the derivatives, straightness (STR) and linearity (LIN). Data from each individual cell track were recorded and analyzed. For each aliquot sampled, >200 sperm were analyzed. The percentage motilities were compared with those of sham-treated control suspensions of motile sperm.

[2] = cited from earlier work

Question: With COC(=O)C(C)NP(=O)(OC[C@H]1O[C@@H](N2C(=O)NC(=O)C(C)(Br)C2OC)CC1N=[N+]=[N-])Oc1ccc(Br)cc1 (mixture of isomers) [WHI-07, (5R,6R)-and (5S,6S)-5-bromo-6-methoxy-5,6-dihydro-AZT-5′-(para-bromophenylmethoxyalaninyl phosphate)] as the compound, how does the “solubility in oil (medium chain triglyceride)” value (Solubility of WHI-07; medium chain triglyceride) read?
Answer: Its value is 4.1%.

Question: What about the solubility at 2 h (Solubility of WHI-07; oil or lipid, in Captex® 300, ambient temperature) of the same compound?
Answer: The solubility at 2 h was 40.6 mg/mL.

Question: What about the solubility at 2 h (Solubility of WHI-07; organic solvent or mixture, in PEG300, ambient temperature) of the same compound?
Answer: The solubility at 2 h was 132 mg/mL.

Question: And the “solubility in polyethylene glycol 300” value (Solubility of WHI-07; polyethylene glycol 300)?
Answer: The value was 13.1%.

Question: What about the solubility in water (Solubility of WHI-07; water) of the same compound?
Answer: The solubility in water was < 0.003%.

Question: And the logP ([1]; octanol/water, average of four samples, read-out: Octanol/Water partition coefficient Log KD)?
Answer: The logP was 2.05.

Question: What about the “Peak area ratio Octanol/water” value ([1]; single samples 1-4, HPLC) of the same compound?
Answer: Its value is 113.9 and 111.3 and 115.8 and 109.2.

Question: Which “effect on human sperm motility” value (human sperm) does the source give for O=C([O-])c1ccccc1.[Na+] [sodium benzoate] here?
Answer: The value was “little or no inhibitory effects”.

Question: Which “EC50 (concentration that decreased the proportion of motile sperm by 50%)” value (human sperm) does the source give for CC(O)CO (stereo not drawn) [propylene glycol, propane-1,2-diol] here?
Answer: Its value is > 4.2%.

Question: And the “effect on human sperm motility” value (human sperm)?
Answer: The value was “partially spermicidal at the highest concentration tested”.

Question: Which results are given for “isononyl-phenyl-polyoxyethylene (9) ether [N-9]”?
Answer: average 6-month pregnancy rate ([2]; users of N-9, several large studies): 26%; effectiveness in preventing pregnancy ([2]; users of N-9): approximately 75%
